In patent publication US5849759A, “Naphthyl-substituted benzimidazole derivatives as anti-coagulants” (Berlex Laboratories, Inc., priority 1995, dated 1998) one finds Km data, which are given here for two molecules.

Where a SMILES comes first, the peptide text is derived from it. [ ]: non-standard residue; d: D form. The star is where a group is joined. pNA = O=[N+]([O-])c1ccc(N*)cc1

The target of assay [1] is T1, Human thrombin (factor IIa) (Homo sapiens, UniProt P00734).
T1 construct: Human thrombin stock solution; purchased Enzyme Research Lab
Kind of assay: In vitro chromogenic assay for thrombin. Type of assay: biochemical. The settings on record: substrate concentration stated equal to Km under present assay conditions; pH 7.5, ambient temperature; read-out: Km (S2302). As to the method: (§1) The activities were determined as an initial rate of cleavage of the peptide p-nitroanilide by the enzyme. The cleavage product, p-nitroaniline, absorbs at 405 nm with a molar extinction coefficient of 9920M^-1 cm^-1.
(§2) 50 mM TrisHCl, 150 mM NaCl, 2.5 mM CaCl2, and 0.1% polyethylene glycol 6000, pH 7.5.
2. Human thrombin stock solution: Stored at -80° C. (working solution (2X): 1200 ng/mL or 40 nM in assay buffer, prepare prior to use).
2. S2302 (Thrombin assay) stock solution: 10 mM in dH2 O, stored at 4° C. (working solution (4X): 1200 μM in assay buffer).
Assays were performed in 96-well microtiter plates in a total volume of 200 μl. […] Concentrations of the standard inhibitor compound in the assay were from 5 μM to 0.021 μM in 1 to 3 dilution. Concentration of the test compounds in the assay typically were from 10 μM to 0.041 μM in 1 to 3 dilution. For potent test compounds, the concentrations used in the factor Xa assay were further diluted 100 fold (100 nM to 0.41 nM) or 1000 fold (10 nM to 0.041 nM). […]
(§3) The enzyme kinetics were measured at 405 nm, at 10 seconds interval, for five minutes in a THERMOmax plate reader at ambient temperature.
(§4) Enzyme rates were calculated as mOD/min based on the first two minutes readings. The IC50 values were determined by fitting the data to the log-logit equation (linear) or the Morrison equation (non-linear) with an EXCEL spread-sheet. […]

Assay [2] has as its target T2, Human tissue plasminogen activator (tPA) (Two chains, Sigma) (Homo sapiens, UniProt P00750).
T2 construct: purchased Sigma
Kind of assay: In vitro chromogenic assay for tissue plasminogen activator. Type of assay: biochemical. The note with it: substrate concentration stated equal to Km under present assay conditions; pH 7.5, ambient temperature; read-out: Km (S2288). The protocol: as §1, §2
3. Human tissue plasminogen activator (tPA) (Two chains, Sigma) stock solution: 1 mg/mL, stored at -80° C. (working solution (2X): 1361 ng/mL in assay buffer, prepare prior to use).
3. S2288 (tPA assay) stock solution: 10 mM in dH2 O, stored at 4° C. (working solution (4X): 1484 μM in assay buffer). (All substrate working solutions were prepared on assay day […].)
Assays were performed in 96-well microtiter plates in a total volume of 200 μl. […] Concentrations of the standard inhibitor compound in the assay were from 5 μM to 0.021 μM in 1 to 3 dilution. Concentration of the test compounds in the assay typically were from 10 μM to 0.041 μM in 1 to 3 dilution. […]
as §3, §4

T2 sequence (P00750 311-562 limits assumed): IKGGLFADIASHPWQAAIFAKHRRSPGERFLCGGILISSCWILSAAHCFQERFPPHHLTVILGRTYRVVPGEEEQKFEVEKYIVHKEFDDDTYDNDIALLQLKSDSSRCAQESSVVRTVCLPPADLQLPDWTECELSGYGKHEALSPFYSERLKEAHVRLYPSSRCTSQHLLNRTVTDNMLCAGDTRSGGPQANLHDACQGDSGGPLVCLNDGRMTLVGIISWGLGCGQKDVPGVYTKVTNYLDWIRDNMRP
T2 sequence (P00750 36-310 partner limits assumed): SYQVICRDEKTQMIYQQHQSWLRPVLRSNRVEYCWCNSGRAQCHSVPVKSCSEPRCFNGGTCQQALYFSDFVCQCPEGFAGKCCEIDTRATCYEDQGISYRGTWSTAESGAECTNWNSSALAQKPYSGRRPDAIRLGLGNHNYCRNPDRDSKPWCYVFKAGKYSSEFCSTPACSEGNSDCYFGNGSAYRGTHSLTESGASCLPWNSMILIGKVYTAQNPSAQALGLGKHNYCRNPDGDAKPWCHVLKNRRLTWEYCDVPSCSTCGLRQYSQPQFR

A word on the Km: it is the concentration of substrate that gives half-maximal velocity. Consider `N=C(N)NCCC[C@H](NC(=O)[C@H](Cc1ccccc1)NC(=O)[C@H]1CCCN1)C(=O)Nc1ccc([N+](=O)[O-])cc1` [S2302] (H-[dP]-Phe-Arg-pNA), for which, in assay [1], the Km was 300 µM.

Take `CC[C@@H](C)[C@@H](N)C(=O)N1CCC[C@H]1C(=O)N[C@@H](CCCN=C(N)N)C(=O)Nc1ccc([N+](=O)[O-])cc1` [S2288] (H-[dI]-Pro-Arg-pNA): in assay [2], the Km is 371 µM.
